Reference: article PMC4303209, “A novel phosphatidylinositol 3-kinase (PI3K) inhibitor directs a potent FOXO-dependent, p53-independent cell cycle arrest phenotype characterized by the differential induction of a subset of FOXO-regulated genes” (Breast Cancer Research : BCR, 2014)

Tested on: MCF-7 breast cancer cells
Assay: Microarray gene expression analysis (Agilent whole human genome 4 x 44K; compound vs DMSO, LIMMA log2 fold change)
Type: cell-based
Details: Apoptosis genes

Cn1ncc2c(N3CCOCC3)nc(-c3cccc(O)c3)nc21 [ETP-45658]
PML log2FC (Gene 5371): -0.804
POLR2G log2FC (Gene 5436): 0.335
POU3F3 log2FC (Gene 5455): -0.318
POU4F1 log2FC (Gene 5457): -0.504
POU4F3 log2FC (Gene 5459): -0.263
PPARD log2FC (Gene 5467): -0.520
PPARG log2FC (Gene 5468): -0.185
PPID log2FC (Gene 5481): 0.248
PPP1CA log2FC (Gene 5499): -0.227
PPP2CA log2FC (Gene 5515): -0.322
PPP2CB log2FC (Gene 5516): -0.242
PPP2R1B log2FC (Gene 5519): -0.532
PPP2R2B log2FC (Gene 5521): 0.082
PPP2R4 log2FC (Gene 5524): -0.446
PPP2R5C log2FC (Gene 5527): 0.888
PPP3CC log2FC (Gene 5533): 0.163
PPP3R1 log2FC (Gene 5534): -0.308
PPT1 log2FC (Gene 5538): 0.432
PRF1 log2FC (Gene 5551): -0.050
PRKAA1 log2FC (Gene 5562): 0.429
PRKAA2 log2FC (Gene 5563): 0.082
PRKCA log2FC (Gene 5578): -0.217
PRKCD log2FC (Gene 5580): -0.079
PRKCE log2FC (Gene 5581): -0.042
PRKCG log2FC (Gene 5582): -0.093
PRKCH log2FC (Gene 5583): -0.256
PRKCI log2FC (Gene 5584): 0.583
PKN2 log2FC (Gene 5586): 0.510
PRKD1 log2FC (Gene 5587): 0.494
PRKCQ log2FC (Gene 5588): 0.132
PRKCZ log2FC (Gene 5590): 0.430
PRKDC log2FC (Gene 5591): 0.131
MAPK3 log2FC (Gene 5595): -0.190
MAPK7 log2FC (Gene 5598): -0.336
MAP2K6 log2FC (Gene 5608): 0.116
PRODH log2FC (Gene 5625): -0.290
LGMN log2FC (Gene 5641): -0.066
PSEN1 log2FC (Gene 5663): 0.418
PSEN2 log2FC (Gene 5664): -0.458
PSMA2 log2FC (Gene 5683): 0.460
PSMA3 log2FC (Gene 5684): 0.270
PSMA4 log2FC (Gene 5685): 0.609
PSMA6 log2FC (Gene 5687): 0.200
PSMB1 log2FC (Gene 5689): 0.085
PSMB2 log2FC (Gene 5690): -0.547
PSMB4 log2FC (Gene 5692): 0.132
PSMB5 log2FC (Gene 5693): -0.298
PSMB6 log2FC (Gene 5694): -0.120
PSMB9 log2FC (Gene 5698): -0.203
PSMB10 log2FC (Gene 5699): -0.184
PSMC1 log2FC (Gene 5700): 0.172
PSMC2 log2FC (Gene 5701): 0.576
PSMC3 log2FC (Gene 5702): -0.176
PSMC5 log2FC (Gene 5705): -0.327
PSMC6 log2FC (Gene 5706): 0.776
PSMD1 log2FC (Gene 5707): 0.397
PSMD3 log2FC (Gene 5709): -0.109
PSMD4 log2FC (Gene 5710): -0.086
PSMD5 log2FC (Gene 5711): 0.388
PSMD7 log2FC (Gene 5713): 0.182
PSMD8 log2FC (Gene 5714): -0.132
PSMD9 log2FC (Gene 5715): -0.171
PSMD10 log2FC (Gene 5716): -0.293
PSMD11 log2FC (Gene 5717): -0.214
PSMD12 log2FC (Gene 5718): -0.582
PSME1 log2FC (Gene 5720): 0.322
PTEN log2FC (Gene 5728): 1.014
PTGFR log2FC (Gene 5737): -0.039
PTGIS log2FC (Gene 5740): 0.033
PTH log2FC (Gene 5741): -0.079
PTGS2 log2FC (Gene 5743): -0.151
PTK2 log2FC (Gene 5747): 0.157
PTPN6 log2FC (Gene 5777): 0.120
PTPRC log2FC (Gene 5788): -0.053
PTPRH log2FC (Gene 5794): 0.279
RAC1 log2FC (Gene 5879): -0.258
RAD9A log2FC (Gene 5883): 0.686
RAD21 log2FC (Gene 5885): 1.043
RAG1 log2FC (Gene 5896): 0.657
RALB log2FC (Gene 5899): 0.324
RARA log2FC (Gene 5914): -0.580
RARG log2FC (Gene 5916): -0.272
RASA1 log2FC (Gene 5921): 0.488
RASGRF2 log2FC (Gene 5924): -0.240
RB1 log2FC (Gene 5925): 0.746
RELA log2FC (Gene 5970): -0.454
DPF2 log2FC (Gene 5977): 0.303
REST log2FC (Gene 5978): 0.367
ROBO1 log2FC (Gene 6091): 0.128
ROBO2 log2FC (Gene 6092): -0.056
ROCK1 log2FC (Gene 6093): 0.615
RPS3A log2FC (Gene 6189): 0.669
RPS6 log2FC (Gene 6194): 0.357
RPS6KA1 log2FC (Gene 6195): -0.234
RPS6KA3 log2FC (Gene 6197): 0.412
RPS6KB1 log2FC (Gene 6198): 0.426
RPS27A log2FC (Gene 6233): 0.401
RTKN log2FC (Gene 6242): -0.208
SORT1 log2FC (Gene 6272): 0.261
S100A8 log2FC (Gene 6279): 0.469
S100B log2FC (Gene 6285): -0.122
SATB1 log2FC (Gene 6304): 0.589
SCT log2FC (Gene 6343): -0.095
CCL2 log2FC (Gene 6347): -0.179
CCL3 log2FC (Gene 6348): -0.223
CCL5 log2FC (Gene 6352): 0.088
CCL21 log2FC (Gene 6366): -0.170
CX3CL1 log2FC (Gene 6376): -0.563
CXCL12 log2FC (Gene 6387): -0.211
MAP2K4 log2FC (Gene 6416): 0.120
SET log2FC (Gene 6418): 0.225
SFRP1 log2FC (Gene 6422): 0.214
SFRP2 log2FC (Gene 6423): -0.093
SFRP4 log2FC (Gene 6424): 0.051
SFRP5 log2FC (Gene 6425): -0.042
ITSN1 log2FC (Gene 6453): 0.278
SHB log2FC (Gene 6461): -0.876
SHH log2FC (Gene 6469): -0.209
SIAH1 log2FC (Gene 6477): 0.248
SIAH2 log2FC (Gene 6478): -0.579
STIL log2FC (Gene 6491): 0.485
SIX1 log2FC (Gene 6495): -0.507
SKI log2FC (Gene 6497): -0.663
SLC9A1 log2FC (Gene 6548): -0.600
SLIT3 log2FC (Gene 6586): -0.286
SNAI2 log2FC (Gene 6591): 0.199
SMO log2FC (Gene 6608): -0.194
SMPD1 log2FC (Gene 6609): 0.257
SMPD2 log2FC (Gene 6610): -0.399
SIGLEC1 log2FC (Gene 6614): -0.350
SNAI1 log2FC (Gene 6615): -0.710
SNCB log2FC (Gene 6620): -0.626
SNCA log2FC (Gene 6622): -0.041
SOD2 log2FC (Gene 6648): 0.179
SON log2FC (Gene 6651): -0.111
SOX2 log2FC (Gene 6657): 0.298
SOX4 log2FC (Gene 6659): 0.216
SOX9 log2FC (Gene 6662): -2.381
SOX10 log2FC (Gene 6663): -0.095
SP100 log2FC (Gene 6672): 0.968
SPI1 log2FC (Gene 6688): -0.242
SPN log2FC (Gene 6693): -0.216
SRC log2FC (Gene 6714): -0.316
SRPK2 log2FC (Gene 6733): 0.850
SST log2FC (Gene 6750): 0.289
SSTR3 log2FC (Gene 6753): -0.375
STAR log2FC (Gene 6770): -0.189
STAT1 log2FC (Gene 6772): 0.445
STAT5A log2FC (Gene 6776): 0.569
STAT5B log2FC (Gene 6777): 0.093
STK4 log2FC (Gene 6789): 0.158
STK11 log2FC (Gene 6794): -0.165
STXBP1 log2FC (Gene 6812): -0.504
SUPV3L1 log2FC (Gene 6832): 0.440
ADAM17 log2FC (Gene 6868): 0.578
TAF9 log2FC (Gene 6880): 0.363
MAP3K7 log2FC (Gene 6885): 0.181
